From ChEMBL document CHEMBL4765331, “Amides of pyrrole- and thiophene-fused anthraquinone derivatives: A role of the heterocyclic core in antitumor properties” (Eur J Med Chem, 2020)
Activity calls are given as the source filed them. No cut-off for these calls is given here.

Legend:
[1] = system: CAPAN-1; assay: Antiproliferative activity against human CAPAN-1 cells assessed as inhibition of cell proliferation measured after 72 hrs by MTT assay; assay type: functional, cell-based; conditions: CAPAN-1, 72 h
[2] = system: HCT-116; assay: Antiproliferative activity against human HCT-116 cells assessed as inhibition of cell proliferation measured after 72 hrs by MTT assay; assay type: functional, cell-based; conditions: HCT-116, 72 h
[3] = system: NCI-H460; assay: Antiproliferative activity against human NCI-H460 cells assessed as inhibition of cell proliferation measured after 72 hrs by MTT assay; assay type: functional, cell-based; conditions: NCI-H460, 72 h
[4] = system: HL-60; assay: Antiproliferative activity against human HL-60 cells assessed as inhibition of cell proliferation measured after 72 hrs by MTT assay; assay type: functional, cell-based; conditions: HL-60, 72 h
[5] = system: K562; assay: Antiproliferative activity against human K562 cells assessed as inhibition of cell proliferation measured after 72 hrs by MTT assay; assay type: functional, cell-based; conditions: K562, 72 h
[6] = Antiproliferative activity against P-gp-positive/doxorubicin-resistant human K562/4 cells assessed as inhibition of cell proliferation measured after 72 hrs by MTT assay; assay type: functional; conditions: K562/4, 72 h
[7] = system: HCT-116; assay: Antiproliferative activity against human HCT-116 cells with inactivated p53 gene assessed as inhibition of cell proliferation measured after 72 hrs by MTT assay; assay type: functional, cell-based; conditions: HCT-116, 72 h
[8] = system: TERT-RPE1; assay: Cytotoxicity against human TERT-RPE1 cells assessed as inhibition of cell proliferation measured after 72 hrs by MTT assay; assay type: cell-based; conditions: RPE-1, 72 h
[9] = Resistance index, ratio of IC50 for human P-gp-positive/Doxorubicin-resistant K562/4 cells to IC50 for human K562 cells; assay type: functional
[10] = system: P388; assay: Antitumour activity against mouse P388 cells xenografted intraperitoneally in BDF1 mouse assessed as mean life span time at 20 mg/kg, ip administered qd for 5 days (reference value: 11.5 +/-0.9 days); assay type: functional; conditions: dose 20 mg/kg/day; time 5 day
[11] = system: P388; assay: Antitumour activity against mouse P388 cells xenografted intraperitoneally in BDF1 mouse assessed as […] T/C ratio at 20 mg/kg, ip administered qd for 5 days (reference value: 100%); assay type: functional; conditions: dose 20 mg/kg/day; time 5 day
[12] = system: Calf thymus DNA; assay: Binding affinity to calf thymus double stranded DNA at 10 uM measured after 5 mins by flourescence spectroscopy method; conditions: Bos taurus
[13] = system: Calf thymus DNA; assay: Binding affinity to calf thymus DNA assessed as DNA intercalation by measuring decrease of negative DNA band at 245 nm at 50 uM by circular dichroism spectral analysis; assay type: tissue-based; conditions: Bos taurus
[14] = system: Calf thymus DNA; assay: Binding affinity to calf thymus DNA assessed as binding constant by scatchard plot analysis; conditions: Bos taurus
[15] = system: Calf thymus DNA; assay: Binding affinity to calf thymus DNA assessed as dissociation constant by scatchard plot analysis; set-up: species or system Bos taurus
[16] = system: Calf thymus DNA; assay: Binding affinity to calf thymus DNA assessed as stoichiometry ratio of compound-DNA complex formation by scatchard plot analysis; conditions: Bos taurus

Question: Which IC50 [1] does the source give for Cc1c(C(=O)N2CC[C@H](N)C2)c2c(O)c3c(c(O)c2n1Cc1ccccc1)C(=O)c1ccccc1C3=O here?
Answer: 1600 nM

Question: What about the IC50 [2] of the same molecule?
Answer: 1800 nM

Question: And the IC50 [3]?
Answer: 5400 nM

Question: And the IC50 [4]?
Answer: 1100 nM

Question: What about the IC50 [5] of the same molecule?
Answer: 700 nM

Question: And the IC50 [6]?
Answer: 5500 nM

Question: What about the IC50 [7] of the same molecule?
Answer: 1800 nM

Question: What about the IC50 [8] of the same molecule?
Answer: 14700 nM

Question: What about the “Ratio IC50” value [9] of the same molecule?
Answer: 7.9

Question: With Cc1[nH]c2c(O)c3c(c(O)c2c1C(=O)N1CC[C@@H](N)C1)C(=O)c1ccccc1C3=O as the molecule, how does the IC50 [1] read?
Answer: 500 nM

Question: And the IC50 [2]?
Answer: 1500 nM

Question: What about the IC50 [3] of the same molecule?
Answer: 500 nM

Question: And the IC50 [4]?
Answer: 200 nM

Question: What about the IC50 [5] of the same molecule?
Answer: 300 nM

Question: And the IC50 [8]?
Answer: 15900 nM

Question: And the Time [10]?
Answer: 17.3 days

Question: And the T/C [11]?
Answer: 150%

Question: What does the source list for CCCn1c(C)c(C(=O)N2CC[C@H](N)C2)c2c(O)c3c(c(O)c21)C(=O)c1ccccc1C3=O?
Answer: IC50 [1]: 4500 nM; IC50 [2]: 2200 nM; IC50 [3]: 14300 nM; IC50 [4]: 1300 nM; IC50 [5]: 1200 nM; IC50 [6]: 7000 nM; IC50 [7]: 2000 nM; IC50 [8]: 17100 nM; Ratio IC50 [9]: 5.8

Question: Which IC50 [1] does the source give for Cc1[nH]c2c(O)c3c(c(O)c2c1C(=O)N1C[C@@H](N)[C@H](N)C1)C(=O)c1ccccc1C3=O here?
Answer: 8700 nM

Question: What about the IC50 [2] of the same molecule?
Answer: 4800 nM

Question: And the IC50 [3]?
Answer: 11400 nM

Question: And the IC50 [4]?
Answer: 3100 nM

Question: What about the IC50 [5] of the same molecule?
Answer: 2400 nM

Question: What about the IC50 [6] of the same molecule?
Answer: > 50000 nM

Question: And the IC50 [7]?
Answer: 7000 nM

Question: And the IC50 [8]?
Answer: > 20000 nM

Question: What about the “Ratio IC50” value [9] of the same molecule?
Answer: >20.8

Question: What does the source list for Cc1c(C(=O)N2CC[C@H](N)C2)c2c(O)c3c(c(O)c2n1C)C(=O)c1ccccc1C3=O?
Answer: IC50 [1]: 1100 nM; IC50 [2]: 1800 nM; IC50 [3]: 16300 nM; IC50 [4]: 700 nM; IC50 [5]: 1200 nM; IC50 [6]: 25000 nM; IC50 [7]: 3200 nM; IC50 [8]: 16100 nM; Ratio IC50 [9]: 19.2; Activity [12]: Active; Activity [13]: Active; Kb [14]: 7.5 10^5/M; Kd [15]: 1300 nM; Ratio [16]: 3
